Consider 20 compounds from patent US5374641A, “N-(3-pyridylalkyl)sulfonamide compounds which have useful pharmaceutical activity” (Terumo Kabushiki Kaisha, priority 1991, dated 1994).

Assay [1] addresses T1, thromboxane synthetase (Homo sapiens, UniProt P24557).
T1 sequence (P24557 1-533): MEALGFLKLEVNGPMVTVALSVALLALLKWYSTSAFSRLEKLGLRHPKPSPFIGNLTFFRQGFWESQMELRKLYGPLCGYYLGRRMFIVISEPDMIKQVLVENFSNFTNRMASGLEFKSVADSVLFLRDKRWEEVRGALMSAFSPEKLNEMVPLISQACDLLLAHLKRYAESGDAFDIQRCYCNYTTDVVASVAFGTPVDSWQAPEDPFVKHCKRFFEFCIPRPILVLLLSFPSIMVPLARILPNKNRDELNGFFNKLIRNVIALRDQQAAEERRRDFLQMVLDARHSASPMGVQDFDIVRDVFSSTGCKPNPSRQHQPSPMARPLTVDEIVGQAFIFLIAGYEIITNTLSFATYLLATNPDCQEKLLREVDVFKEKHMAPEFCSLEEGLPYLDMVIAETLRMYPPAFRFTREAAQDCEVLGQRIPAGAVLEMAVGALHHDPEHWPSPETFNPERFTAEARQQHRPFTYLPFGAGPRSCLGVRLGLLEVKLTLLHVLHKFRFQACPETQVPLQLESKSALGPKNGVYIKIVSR
Briefly: Test Example 2: Thromboxane synthetase inhibiting activity (human PRP, thrombin, RIA). It is filed as cell-based. As for the experimental part: (§1) A blood sample was collected from human fore arm using a syringe containing 3.8% sodium citrate solution (1/10 volume of the blood to be collected) and centrifuged to obtain platelet rich plasma (PRP; 3 ×10^5 platelets/μ1).
(§2) A 200 μ1 portion of the thus prepared PRP and 23.75 µl of physiological saline were put in a cuvette, the cuvette was set into the aforementioned aggregometer and the contents in the cuvette were incubated at 37° C. for 2 minutes. Thereafter, 1.25 μ1 dimethyl sulfoxide (DMSO) solution of each of the N-(3-pyridylalkyl)sulfonamide derivatives obtained in Examples 1, 3 and 7 was put in the cuvette and incubated for 3 minutes, followed by the addition of 20 U/ml solution of thrombin to cause platelet aggregation. A portion of the supernatant after aggregation reaction was mixed with diethyl ether/methanol/0.2M citric acid (30:4:1 ), and the thus formed thromboxane A2 was extracted and its quantity was analyzed by RIA using a kit of Amersham.

The test system of assay [2] is platelet aggregation, induced by U-46619. Nature of the assay: Test Examples 4: Platelet aggregation inhibiting activity (guinea pig PRP, U-46619). The note with it: Cavia porcellus, 320 nM U-46619, 37° C., read-out: Platelet aggregation activity IC50 (concentration of 50% inhibition of platelet aggregation, induced by U-46619). It is filed as cell-based. As for the experimental part: A blood sample was taken from carotid artery of a guinea pig using a syringe containing 3.8% sodium citrate solution (1/10 volume of the blood to be collected). The blood was centrifuged to obtain platelet riched plasma (PRP: number of platelets, 3×10^5 /μ1).
Two hundred microliters of the PRP and 23.75 µl of physiological saline were placed in a cuvette, which was then set in an aggregometer, followed by heating at 37° C. for two minutes, and then followed by addition of 1.25 µl of the solution of an N-(3-pyridylalkyl)sulfonamide derivative of the present invention in ethanol, for 3-min incubation. Then, U-46619, one of stable PGG2 /H2 derivatives, having strong action inducing platelet aggregation, was added, so that platelet aggregation was measured by an aggregometer [Hematracer VI: manufactured by NIKO Bioscience, K.K.].

Assay [3] deals with T1, thromboxane synthetase. Nature of the assay: Test Example 5: Thromboxane synthetase inhibiting activity (human platelet microsomal fraction, RIA). It is filed as biochemical. The note with it: PGH2, room temperature, 60 seconds, read-out: Inhibition of thromboxane synthetase IC50. The procedure: Arachidonic acid (10 nM) was added to 250 μg of microsome of sheep seminal vesicle gland, commercially available from Hilran Biochemical, Co. Ltd., Israel, Lot SM36, which was then reacted at room temperature for 90 seconds to prepare PGH2.
Commercially available human platelet microsomal fraction (200 μg) as a source for thromboxane synthetase was mixed with the PGH2 solution prepared in the same manner as for samples, and reacted together at room temperature for 60 seconds. Diethyl ether/methanol/0.2M citric acid (30:4:1) was added to extract thromboxane A2 generated and its quantity was then analyzed by RIA using a kit manufactured by NEN, Co. LTd.

Assay [4] concerns the target T1, thromboxane synthetase. Briefly: Test Example 7: Thromboxane synthetase inhibiting activity (human PRP, thrombin, RIA). It counts as cell-based. As to conditions: for IC50: 20 U/ml thrombin, RIA, read-out: Inhibition of thromboxane A2 synthesis (IC50); for thromboxane synthetase inhibiting activity (in words): thrombin. The procedure:
A blood sample was collected from human fore arm using a syringe containing 3.8% sodium citrate solution (1/10 volume of the blood to be collected) and centrifuged to obtain platelet rich plasma (PRP; 3×10^5 platelets/μl ).
as §2, with “200 μl” for “200 μ1”, “23.75 μl” for “23.75 µl”, “Examples 36, 37, 38” for “Examples 1, 3”, “and 40” for “and 7”, “acid (30:4:1),” for “acid (30:4:1 ),”

The test system of assay [5] is platelet aggregation caused by U-46619. Briefly: Test Example 1: Platelet aggregation inhibiting activity (human PRP, U-46619). It is filed as cell-based. The note with it: for IC50: Platelet, 320 nM U-46619, 37° C., read-out: Inhibitory effect against platelet aggregation caused by U-46619 (IC50); for platelet aggregation inhibiting activity (in words): U-46619. As for the experimental part:
as §1
(§3) Platelet aggregation was measured using an aggregometer (Hematracer VI, Niko Bioscience Co., Ltd.) by putting 200 µl of the thus prepared PRP and 23.75 µl of physiological saline in a cuvette, setting the cuvette into the aggregometer and incubating the contents at 37° C. for 2 minutes, adding 1.25 μ1 dimethyl sulfoxide (DMSO) solution of each of the N-(3-pyridylalkyl)sulfonamide derivatives obtained in Examples 1, 3, 4, 6 and 8 and incubating for 3 minutes, and then adding U-46619 (Cayman Chemical Co., Inc.) which is a stable PGG2/ H2 derivative having a strong platelet aggregation causing activity.
In this instance, the term "IC50 "as used herein means concentration of the N-(3-pyridylalkyl)sulfonamide derivative of the present invention required to inhibit 50% of the platelet agglutination when platelet aggregation without introducing the inventive derivative was defined as 100%.

The test system is the same in assay [6]. Briefly: Test Examples 6: Platelet aggregation inhibiting activity (human PRP, U-46619). It counts as cell-based. As to conditions: for IC50: Platelet, 320 nM U-46619, 37° C., read-out: Inhibitory effect against platelet aggregation caused by U-46619 (IC50); for platelet aggregation inhibiting activity (in words): U-46619. As for the experimental part: A blood sample was collected from human fore arm using a syringe containing 3.8% sodium citrate solution (1/10 volume of the blood to be collected) and centrifuged to obtain platelet rich plasma (PRP; 3×10^5 platelets/μl).
as §3, with “200 μof” for “200 µl of”, “23.75 μl” for “23.75 µl”, “1.25 μl” for “1.25 μ1”, “Examples 35, 36, 37” for “Examples 1, 3, 4, 6”, “and 42” for “and 8”, “stable PGG2 /H2” for “stable PGG2/ H2”
In this instance, the term "IC50 " as used herein means concentration of the N-(3-pyridylalkyl)sulfonamide derivative of the present invention required to inhibit 50% of the platelet aggregation when platelet aggregation without introducing the inventive derivative was defined as 100%.

Consider `O=C(O)COc1ccc(C(CCNS(=O)(=O)c2ccc(Cl)cc2)Cc2cccnc2)cc1` (stereo not drawn) [Example 8, 4-[1-(4-chlorobenzenesulfonamido)-4-(3-pyridyl)-3-butyl]phenyloxyacetic acid], for which the IC50 on thromboxane synthetase [1] (20 U/ml thrombin, RIA, read-out: Inhibition of thromboxane A2 synthesis (IC50)) stood at 4.3 µM.

Regarding `O=C(O)CCc1ccc(CC(NS(=O)(=O)c2ccc(Cl)cc2)c2cccnc2)cc1` (stereo not drawn) [Example 17, 3-{4-[2-(4-chlorobenzenesulfonamido)-2(3-pyridyl)ethyl]phenyl}propionic acid], the IC50 in assay [2] worked out at 1800 nM; on thromboxane synthetase [3], 30000 nM.

Consider `O=C(O)Cc1ccc(CC(NS(=O)(=O)c2ccc(Cl)cc2)c2cccnc2)cc1` (stereo not drawn) [Example 21, 4-[2-(4-chlorobenzenesulfonamido)-2-(3-pyridyl)ethyl]phenylacetic acid], for which the IC50 was 680 nM in assay [2] and 2200 nM on thromboxane synthetase [3].

Turning to `CCOC(=O)/C(C)=C/c1ccc(C(CNS(=O)(=O)c2ccc(Cl)cc2)c2cccnc2)cc1` (stereo not drawn) [Example 40, ethyl 4-[2-(4-chlorobenzenesulfonamido)-1-(3-pyridyl)ethyl]-α-methylcinnamate], at thromboxane synthetase [4], the IC50 amounted to 1.5 µM and the “thromboxane synthetase inhibiting activity (in words)” value is “excellent thromboxane synthetase inhibiting activity”.

For `Cc1ccc(S(=O)(=O)NC(Cc2ccc(OCC(=O)O)cc2)c2cccnc2)cc1` (stereo not drawn) [Example 11], the IC50 was found to be 1900 nM in assay [2] and 21000 nM at thromboxane synthetase [3].

Turning to `O=C(O)c1ccc(CC(NS(=O)(=O)c2ccc(Cl)cc2)c2cccnc2)cc1` (stereo not drawn) [Example 19], the IC50 in assay [2] was determined as 4200 nM; on thromboxane synthetase [3], 1000 nM.

In the case of `O=C(O)COc1ccc(C(CCNS(=O)(=O)c2ccc(Cl)cc2)c2cccnc2)cc1` (stereo not drawn) [Example 7, 4-[3-(4-chlorobenzenesulfonamido)-1-(3-pyridyl)propyl]phenyloxyacetic acid], in assay [5], the IC50 was 30 µM and the “platelet aggregation inhibiting activity (in words)” value was “markedly high platelet aggregation inhibiting activity”. Further, the “thromboxane synthetase inhibiting activity (in words)” value at thromboxane synthetase [1] (thrombin) is “excellent thromboxane synthetase inhibiting activity”.

Take `O=C(O)/C=C/c1ccc(CC(NS(=O)(=O)c2ccc(Cl)cc2)c2cccnc2)cc1` (stereo not drawn) [Example 15, 4-[2-(4-chlorobenzenesulfonamido]-2-(3-pyridyl)ethyl]cinnamic acid]: the figures for the IC50 (in assay [2]; on thromboxane synthetase [3]) were 1100 nM and 36000 nM, respectively.

As for `O=C(O)COc1ccc(C(CNS(=O)(=O)c2ccc(Cl)cc2)Cc2cccnc2)cc1` (stereo not drawn) [Example 23, 4-[{1-(4-chlorobenzenesulfonamido)-3-(3-pyridyl)}propan-2-yl]phenoxyaceticacid], the IC50 in assay [2] was 360 nM; on thromboxane synthetase [3], 5100 nM.

Take `CCOC(=O)Oc1ccc(CC(CNS(=O)(=O)c2ccc(Cl)cc2)c2cccnc2)cc1` (stereo not drawn) [Example 27]: the IC50 in assay [2] was determined as 52000 nM; on thromboxane synthetase [3], 28000 nM.

As to `O=C(O)COc1ccc(CCC(NS(=O)(=O)c2ccc(Cl)cc2)c2cccnc2)cc1` (stereo not drawn) [Example 31, 4-[3-(4-chlorobenzenesulfonamido)-3-(3-pyridyl)propyl]phenoxyacetic acid], the IC50 in assay [2] was 15000 nM; on thromboxane synthetase [3] it was 940 nM.

For the compound `CCOC(=O)Oc1ccc(C(CNS(=O)(=O)c2ccc(Cl)cc2)Cc2cccnc2)cc1` (stereo not drawn) [Example 24], the values for the IC50 (in assay [2]; on thromboxane synthetase [3]) were 40000 nM and 2200 nM, respectively.

Consider `C/C(=C\c1ccc(CC(NS(=O)(=O)c2ccc(Cl)cc2)c2cccnc2)cc1)C(=O)O` (stereo not drawn) [Example 35], for which, in assay [6], the IC50 was 48 µM and the “platelet aggregation inhibiting activity (in words)” value is listed as “markedly high platelet aggregation inhibiting activity”.

As to `C/C(=C\c1ccc(C(CCNS(=O)(=O)c2ccc(Cl)cc2)c2cccnc2)n1C)C(=O)O` (stereo not drawn) [Example 42], in assay [6], the IC50 came out at 43 µM and the “platelet aggregation inhibiting activity (in words)” value was “markedly high platelet aggregation inhibiting activity”.

`C/C(=C\c1ccc(C(CNS(=O)(=O)c2ccc(Cl)cc2)Cc2cccnc2)cc1)C(=O)O` (stereo not drawn) [Example 36, 4-[1-(4-chlorobenzenesulfonamido)-3-(3-pyridyl)-2-propyl]-α-methylcinnamic acid]: in assay [6], the IC50 was 71 µM and the “platelet aggregation inhibiting activity (in words)” value is listed as “markedly high platelet aggregation inhibiting activity”. In addition, on thromboxane synthetase [4], the IC50 amounted to 8.3 µM and the “thromboxane synthetase inhibiting activity (in words)” value was “excellent thromboxane synthetase inhibiting activity”.

As for `CCOC(=O)COc1ccc(C(CCNS(=O)(=O)c2ccc(Cl)cc2)Cc2cccnc2)cc1` (stereo not drawn) [Example 9], in assay [5], the IC50 was found to be 5.1 µM and the “platelet aggregation inhibiting activity (in words)” value is listed as “markedly high platelet aggregation inhibiting activity”.

For `O=C(O)COc1ccc(CC(CNS(=O)(=O)c2ccc(Cl)cc2)c2cccnc2)cc1` (stereo not drawn) [Example 26], the values for the IC50 (in assay [2]; on thromboxane synthetase [3]) were 60000 nM and 2400 nM, respectively.

Take `O=C(O)c1ccc(CCC(NS(=O)(=O)c2ccc(Cl)cc2)c2cccnc2)cc1` (stereo not drawn) [Example 29, 4-[3-(4-chlorobenzenesulfonamido)-3-(3-pyridyl)propyl]benzoic acid]: the IC50 in assay [2] is 2000 nM; on thromboxane synthetase [3] it was 1500 nM.

Take `O=C(O)COc1ccc(CC(CCNS(=O)(=O)c2ccc(Cl)cc2)c2cccnc2)cc1` (stereo not drawn) [Example 33]: the figures for the IC50 (in assay [2]; at thromboxane synthetase [3]) were 17000 nM and 30 nM, respectively.

With `O=C(O)COc1ccc(CC(NS(=O)(=O)c2ccccc2)c2cccnc2)cc1` (stereo not drawn) [Example 13], the IC50 in assay [2] was 840 nM; at thromboxane synthetase [3] it was 8900 nM.
